Data: publication PMC5855688, “BC-Box Motif-Mediated Neuronal Differentiation of Somatic Stem Cells” (International Journal of Molecular Sciences, 2018)
Entries after “also recorded” stand apart in the source; their conditions may differ.

How the values were obtained:
[1] = test system: skin-derived precursors (SKPs); test: Whole-cell patch-clamp electrophysiology; format: cell-based, rat (neonate Wistar); settings: five days after peptide addition at 3 μM, holding potential −80 mV, steps of 20 mV from −100 to 100 mV, VHL(157–168) vs VHL(157–171) p < 0.01
Method: (§1) Rodent skin-derived precursor cells (SKPs), which can differentiate to neurons, were used. SKPs were previously isolated from the back dermis of neonate Wistar rats by the authors. These cells were cultured in growth medium composed of DMEM/F12 (1:1; Gibco, Grand Island, NY, USA) containing 2% B27 supplement (Gibco), 20 ng/mL epidermal growth factor (EGF; Upstate Biotechnology, Lake Placid, NY, USA), and 40 ng/mL bFGF (PeproTech EC Ltd., Rocky Hill, NJ, USA) in a humidified incubator at 37 °C with 5% CO2. The floating clusters of cultured cells were centrifuged and dissociated into a single-cell suspension by use of a Pasteur pipette with a flame-polished tip. These single cells were then re-suspended into at a concentration of 50,000 cells/mL for passage or experiments.
(§2) For neuronal differentiation, cells were dissociated into a single-cell suspension by use of a Pasteur pipette and re-suspended into a concentration of 50,000 cells/mL in DMEM/F12 without serum, neurotrophic factors or growth factors. Then, the cells were cultured on poly-L-lysine-coated dishes or cover glasses, and the synthesized peptides at concentrations from 1 to 5 μM were added to the culture medium and delivered into the cells. Three days or more later, the cells were used for morphological, immunocytochemical, immunohistochemical, electrophysiological and immunoprecipitation studies, as well as for Western blot analysis.
To record fast sodium and delayed rectifier potassium currents, we prepared extracellular and intracellular solutions as described previously. […] For recordings and data analysis we used CEZ-2300 (Nihon Kohden, Tokyo, Japan) and pCLAMP 6.0 software (Axon Instruments, Burlingame, CA, USA). Linear components of leak and capacitive currents were reduced by analogue circuitry and then canceled by the P/N method. Signals were sampled every 20 μs, and currents were filtered at 5 kHz. Data were additionally processed with Origin 5.0 (Microcal, Northhampton, MA, USA).

[2] = test system: skin-derived precursors (SKPs); test: Western blot analysis of NFH protein; format: cell-based, rat (neonate Wistar); settings: three days after treatment, Figure 3B, peptides at 1 to 5 μM, less than VHL(157–171): VHL(157–168) p < 0.01, TAT p < 0.001
Method: as §1, §2
Cultured cells were washed 3 times in cold PBS and then scraped into ice-cold PBS. After incubation on ice for 10 min, the cells were lysed with lysis buffer and centrifuged, after which the supernatants were collected. Each sample was separated by SDS-PAGE under reducing conditions and transferred electrophoretically to nitrocellulose filters. Non-specific binding of antibody was blocked by incubation with 5% donkey serum for 1 h. Western blots were probed with anti-MAP2 antibody, anti-NFH antibody, anti-ChAT antibody, anti-GAD antibody, anti-rhodopsin antibody, anti-TH antibody, and anti-elongin C antibody (Santa Cruz, San Diego, CA, USA) followed by horseradish peroxidase-conjugated secondary antibodies. Protein bands were detected by using a chemical luminescence detection system (ECL Plus Western Blotting Reagent Pack, Amersham, Hemel Hempstead, UK). Images were analyzed with LAS-1000 (Fujifilm, Tokyo, Japan), and the density of the bands was determined by using Image Gauge software (Fujifilm).

[3] = test system: skin-derived precursors (SKPs); test: Immunocytochemistry of neuronal markers in NDD peptide-treated cells; format: cell-based, rat (neonate Wistar); settings: Figure 6B
Method: as §1, §2
Cultured cells were fixed with 4% paraformaldehyde in PBS (Phosphate buffered saline) for 10 min at room temperature. Cells were incubated for 1 h at room temperature with primary antibodies. Antibodies against anti-MAP2 antibody (Sigma-Aldrich, St. Louis, MO, USA), anti-Neurofilment-H (NFH) antibody (Sigma-Aldrich), anti-NeuN antibody (Merk Millipore, Billerica, MA, USA), anti-GFAP antibody (DAKO, Santa Clara, CA, USA), anti-tyrosine hydroxylase (TH) antibody (Merk Millipore, Billerica, MA, USA), anti-choline acetyl transferase (ChAT) antibody (Abbiotec, San Diego, CA, USA), anti-glutamic acid decaboxylase (GAD) antibody (Enzo Life Sciences, Flamingdale, NY, USA), and anti-rhodopsin antibody (Santa Cruz, San Diego, CA, USA) were used. After incubation with primary antibody, the cells were incubated for 1 h with secondary antibody, either rhodamine-conjugated anti-mouse IgG (Sigma-Aldrich) or FITC-conjugated anti-rabbit IgG (Sigma-Aldrich). Nuclear counterstaining was done with DAPI (Molecular Probes, Eugene, OR, USA) or TO-PRO-3 (Molecular Probes), and observations were made with a fluorescence microscope system (FV300, Olympus, Tokyo, Japan). We counted the number of immuno-positive cells with a given antibody in 4 to 6 random non-overlapping visual fields (50–200 cells per field) in each experiment. At least 2 experiments were performed per condition. The degree of positivity was expressed as the rate of immuno-positive cells to the total number of nuclei stained with DAP1 or TO-PRO-3.

[4] = test system: rat brain; test: Immunohistochemistry (NeuN) of transplanted peptide-treated cells in rat brain; format: in vivo, rat (Wistar); settings: 1 × 10^5 peptide-treated cells transplanted into rat brain, 6 weeks; mean ± SEM; vs VHL(157–171): p < 0.01 for VHL(157–168), p < 0.005 for TAT
Method: To evaluate neuronal differentiation of transplanted cells in rat brains, immunohistochemical study was performed as described previously. Before grafting, cells were preincubated with red fluorescence PKH26PCL (Sigma, St. Louis, MO, USA). […] Rats were anesthetized with isoflurane before surgery, and 1 × 10^5 cells were transplanted into rat brain. The rats were perfused with periodate-lysine-paraformaldehyde solution 6 weeks after the transplantation. Their brains were subsequently dissected and postfixed in the same medium for 2 h, cryopreserved in 30% sucrose for 12 h, and then embedded in Tissue Tek OCT compound (Sakura, Tokyo, Japan). Cryostat coronal sections of 14-μm thickness were prepared for immunohistochemistry. For immunostaining, sections were incubated with primary antibody, anti-NeuN antibody, and then incubated in secondary antibody, FITC-conjugated anti-rabbit IgG. Counterstaining was done with DAPI. In immohistochemistry, observations were made with a confocal immunofluorescence microscope (FV300, Olympus, Tokyo, Japan).
Wistar rats (Clea, Tokyo, Japan) were used in all experiments and housed in a temperature controlled room on a 12-h day/night cycle with free access to food and water. All animal experimental procedures were approved by the Institutional Animal Use Committee of Yokohama City University (ID 153, 1 April 2015) and were in accordance with National Institutes of Health guidelines for care and use of laboratory animals.

[5] = test system: STAT3; test: Western blotting of STAT3 before and after peptide treatment; format: cell-based, rat; settings: Western blot, Figure 5B, p < 0.01

## YARAAARQARATLKERCLQVVRSLVK [VHL(157–171), NDD in pVHL: BC-box motif plus five amino acids, conjugated with PTD]
[1]
  Voltage-gated outward K+ and inward Na+ currents: both large outward potassium currents and fast inward Na^+ currents
[2]
  NFH protein amount / band: A distinct band for NFH; also recorded: significantly greater amount of anti-NFH protein
[3]
  Rate of GAD-positive (GABAnergic neuron-like) cells: high rates of positive cells
  Rate of TH-positive (dopaminergic neuron-like) cells: high rates of positive cells
  Rate of rhodopsin-positive cells: high rates of positive cells
[4]
  Positive rates of NeuN: 42.5 ± 4.5%
[5]
  STAT3 degradation: JAK2 and STAT3 were indeed degraded
